# According to paper PMC12030165, “Bioactivity of Synthesized Trifluoromethyl Thioxanthone Analogues” (Pharmaceuticals, 2025):
# Tests used:
# [1] = target: T1, porcine pancreatic lipase (Sus scrofa, UniProt P00591); experiment: Inhibition assay of pancreatic lipase enzyme (PNPB); format: biochemical
# T1 construct: purchased Sigma-Aldrich (Missouri, MO, USA)
# T1 sequence (P00591 1-450): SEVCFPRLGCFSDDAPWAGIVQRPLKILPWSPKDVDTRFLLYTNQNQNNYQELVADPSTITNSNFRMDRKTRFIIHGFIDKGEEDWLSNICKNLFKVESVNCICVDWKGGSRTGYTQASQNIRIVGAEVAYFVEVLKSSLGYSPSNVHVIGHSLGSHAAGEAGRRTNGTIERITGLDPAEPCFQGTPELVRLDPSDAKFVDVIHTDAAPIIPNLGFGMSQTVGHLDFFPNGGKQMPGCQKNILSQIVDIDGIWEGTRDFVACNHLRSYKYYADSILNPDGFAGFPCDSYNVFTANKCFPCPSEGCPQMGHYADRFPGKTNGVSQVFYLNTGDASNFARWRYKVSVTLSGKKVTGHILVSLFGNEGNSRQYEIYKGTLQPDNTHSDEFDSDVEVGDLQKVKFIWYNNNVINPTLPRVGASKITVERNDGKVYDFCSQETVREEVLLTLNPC
# Protocol: A stock solution of 1 mg/mL (1000 μg/mL) was prepared for each product using 10% DMSO. This stock solution created […] different concentrations at 20, 50, and 70 μg/mL. A fresh stock solution of pancreatic lipase enzyme was prepared immediately before use. […] In the experiment, 0.1 mL of the 1 mg/mL porcine pancreatic lipase solution was added to test tubes containing 0.2 mL of each of the various concentrations of the products. The mixtures were then brought to a final volume of 1 mL by adding a Tris-HCl solution (pH 7.4) and were incubated at 25 °C for 15 min. After the incubation period, 0.1 mL of the PNPB solution was added to each test tube, and the mixtures were incubated again for 30 min at 37 °C. The activity of pancreatic lipase was measured by assessing the hydrolysis of p-nitrophenyl butyrate to p-nitrophenol at a wavelength of 410 nm using a UV-visible spectrophotometer.
# [2] = target: T2, COX-2 (Homo sapiens, UniProt P35354); experiment: COX (human) Inhibitor Screening Assay, COX-2; format: biochemical; conditions: for COX-2 Selectivity: ratio of COX-1 and COX-2 IC50
# T2 construct: purchased Cayman Chemicals 701230
# T2 sequence (P35354 18-604): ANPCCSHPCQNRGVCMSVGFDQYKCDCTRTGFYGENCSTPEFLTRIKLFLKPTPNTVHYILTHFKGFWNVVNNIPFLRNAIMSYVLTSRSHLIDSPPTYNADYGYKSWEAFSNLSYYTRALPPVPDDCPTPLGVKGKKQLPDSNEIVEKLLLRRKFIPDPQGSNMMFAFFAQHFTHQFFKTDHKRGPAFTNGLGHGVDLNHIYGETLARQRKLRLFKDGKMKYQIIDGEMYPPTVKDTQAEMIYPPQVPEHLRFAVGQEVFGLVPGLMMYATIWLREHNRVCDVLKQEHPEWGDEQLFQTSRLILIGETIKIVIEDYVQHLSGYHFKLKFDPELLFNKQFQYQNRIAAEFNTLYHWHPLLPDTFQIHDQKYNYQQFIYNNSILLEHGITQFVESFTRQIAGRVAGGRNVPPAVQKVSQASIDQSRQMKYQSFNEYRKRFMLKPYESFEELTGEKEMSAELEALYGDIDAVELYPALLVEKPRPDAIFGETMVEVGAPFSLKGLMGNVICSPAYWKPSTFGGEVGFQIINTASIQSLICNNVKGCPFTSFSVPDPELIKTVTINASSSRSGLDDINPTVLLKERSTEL
# Protocol: Our synthesized compounds’ COX-1 and COX-2 inhibitory activities were evaluated using the COX (human) Inhibitor Screening Assay Kit supplied by Cayman Chemicals (catalog no. 701230, Ann Arbor, MI, USA). The preparation of reagents and testing procedures were conducted according to the manufacturer’s recommendations. Two concentrations of the inhibitors (10 µM and 50 µM) were dissolved in a minimal amount of dimethyl sulfoxide (DMSO) and incubated with a mixture of COX-1 or COX-2 enzyme and heme in a diluted reaction buffer for 10 min at 37 °C. The reaction was initiated by adding 10 µL of arachidonic acid, followed by a two-minute incubation at 37 °C. The reaction was halted by adding 30 µL of stannous chloride solution to each reaction tube and incubating for 5 min at room temperature. The resulting PGF2α, produced by the COX reactions, was quantified using an enzyme-linked immunosorbent assay (ELISA). The 96-well plate was covered with plastic film and incubated for 18 h at room temperature on an orbital shaker. After incubation, the plate was rinsed five times with a wash buffer. Then, Ellman’s reagent (200 µL) was added, and the plate was incubated for approximately 60–90 min at room temperature until the absorbance of the blank well was in the range of 0.3–0.8 at 405 nm. The plate was read using a Unilab Microplate Reader 6000. The inhibitory percentage was calculated for each concentration tested against the control. The IC50 values were derived from the concentration-inhibition response curve, and the selectivity index (SI) was calculated by dividing the IC50 for COX-2 by the IC50 for COX-1 [52].
# [3] = test system: HeLa cells; experiment: Cytotoxicity (MTS) against HeLa cells; format: cell-based; conditions: for IC50: Homo sapiens, HeLa, concentration range 100–20,000 nM, read-out: IC50 of inhibition activity against Hela cells
# Protocol: RPMI-1640 medium was used to culture cervical adenocarcinoma (HeLa) cancer cells, supplemented with 10% fetal bovine serum, 1% penicillin/streptomycin, and 1% L-glutamine. The HeLa cells were grown in a humidified environment at 37 °C with a 5% CO2 atmosphere. A 96-well plate was employed for seeding the cells at a density of 2.6 × 10^4 cells per well. Following a 24-h incubation, the cells were treated with various concentrations of the tested (AO) fractions. Cell viability was assessed using the Cell Titer 96® Aqueous One Solution Cell Proliferation (MTS) assay, following the manufacturer’s instructions (Promega Corporation, Wisconsin, WI, USA). Briefly, at the end of the treatment, 20 µL of MTS solution was added to each well containing 100 µL of media, and the cells were incubated at 37 °C for 2 h. The absorbance was measured using a UV-visible spectrophotometer at a wavelength of 490 nm.
IC50 [1],IC50 [2],COX-2 Selectivity [2],Compound,% toxicity against HeLa cells ([3]; 200 nM),IC50 [3]
176000 nM,27.1 ± 0.6 nM,1.5,"OC1(c2ccccc2)c2ccccc2Sc2ccc(C(F)(F)F)cc21 (stereo not drawn) [Compound 1, 9-phenyl-2-(trifluoromethyl)-9H-thioxanthen-9-ol]",93.18%,87.8 nM
111000 ± 7500 nM,74.1 ± 0.48 nM,0.2,"OC1(Cc2ccccc2)c2ccccc2Sc2ccc(C(F)(F)F)cc21 (stereo not drawn) [Compound 2, 9-benzyl-2-(trifluoromethyl)-9H-thioxanthen-9-ol]",,169 nM

Compound,IC50 [1],IC50 [2],COX-2 Selectivity [2],% toxicity against HeLa cells ([3]; 200 nM),IC50 [3]
S-(9-benzyl-2-(trifluoromethyl)-9H-thioxanthen-9-yl)-L-cysteine [Compound 3],277000 nM,25.9 ± 0.45 nM,1.3,,
